Key:
[1] = test system: natural binding protein extracted from bovine muscle; experiment: Saturation analysis of cyclic AMP: binding of 75Se-labelled cyclic AMP derivative to binding protein and displacement by cyclic AMP; conditions: for Percentage of 75Se-labelled cyclic AMP bound: 3 picomoles ligand, pH 7.5, 2°-4° C., 3 hours; for binding to natural binding protein extracted from bovine muscle / displacement with 3',5'-cyclic AMP from natural binding protein: qualitative
Method: Standard solutions of cyclic AMP containing 1, 2, 4, 8 and 16 picomoles in 50mmol tris/4mmol EDTA buffer, pH 7.5 (50μl) were pipetted into assay tubes maintained at 2°-4° C. Buffer was also added to `total` `blank` and `zero dose` tubes (150, 150 and 50μl respectively),also at 2-4' C. To each tube was added 8-methylseleno-cyclic AMP-^75 Se (3 picomoles; specific activity ca 22Ci/mmol) in 50μl of buffer.
Binding protein (ex bovine muscle) in 100μl of buffer was then added to all tubes except the `blanks`. The tubes were vortex mixed for approximately 5 seconds and then incubated at 2°-4° C. for 3 hours. A suspension of charcoal in water (100μl) was added to all tubes except the `totals` and after vortex mixing for approximately 5 seconds the tubes were immediately centrifuged to sediment the charcoal. A 200μl sample was removed from the supernate of each tube and from the `totals` and counted in a gamma counter.
(§1) Results are expressed in terms of […]

[2] = test system: Antiserum (raised against cyclic GMP-2'-succinyl-BSA); experiment: Saturation analysis of cyclic GMP: binding of 8-methylseleno-cyclic GMP-75Se to antiserum and displacement by cyclic GMP; conditions: for Percentage of 75Se-labelled cyclic GMP bound: 0.25 picomoles ligand, pH 7.5, 2°-4° C., 3 hours
Method: Standard solutions of cyclic GMP containing 0.25, 0.5, 1.0, 2, 4, 8 and 16,000 picomoles in 100μl of 50mmol tris/4mmol EDTA buffer, pH 7.5, were pipetted into assay tubes maintained at 2°-4° C.; the concentration of 16,000 picomoles/100μl was for determination of `non-specific binding`. 100μl of buffer was also added to a tube for determination of `zero dose` counts. To each tube was added 8-methylseleno-cyclic GMP-^75 Se (0.25 picomoles, specific activity ca 24Ci/mmol) in 50μl of buffer. Antiserum (raised against cyclic GMP-2'-succinyl-BSA) in 50μl of buffer was then added to all tubes. The tubes were briefly vortex mixed and incubated at 2°-4° C. for 3 hours. 1ml of aqueous ammonium sulphate solution (60% saturated) at 2°-4° C. was added to all tubes which, after mixing, were kept at 2°-4° C. for 5 minutes and then centrifuged. After decantation of the supernate and removal of adhering liquid the precipitates were counted in a gamma counter. 0.25 picomoles of 8-methylseleno-cyclic GMP-^75 Se (specific activity ca 24Ci/mmol) in 50μl of buffer was also counted to give `total` counts.
as §1

binding protein = experiment: Competitive inhibition of the binding of tritiated cyclic AMP to the binding protein; parameters: species or system bovine; conditions: for % 3H-cyclic AMP bound: tritiated cyclic AMP 0.9pmol, zero-dose binding 54.5; for Cyclic AMP equivalent: unlabelled cyclic AMP giving equal reduction in binding
Method: Because of the low activity of the 6-methylselenopurine riboside 3',5'-cyclic monophosphate-^75 Se its binding properties were investigated by using the selenium-75 compound as a competitive inhibitor of the binding of tritiated cyclic AMP to the binding protein.
6-methylselenopurine riboside 3',5'-cyclic monophosphate-^75 Se (specific activity 6.65m Ci/mmol) was made up in tris/EDTA buffer at concentrations of 1,156 pmoles, 105pmoles and 9.6pmoles per 50μl aliquot. In the normal assay 100μl of binding protein is incubated with tritiated cyclic AMP (0.9pmol) and unlabelled cyclic AMP (standards and unknowns). Bound and free labelled cyclic AMP are separated by absorption of free cyclic AMP on charcoal and bound activity is determined by counting a sample of the supernate. To determine the potency of the selenium analogue the zero-dose binding was first determined, ie. the percentage of tritiated cylic AMP bound in the absence of unlabelled cyclic AMP or selenium analogue. This was then compared with the binding of tritiated cylic AMP in the presence of 4 different doses of selenium analogue. From the results obtained it was possible to calculate the amounts of unlabelled cyclic AMP which would give a reduction in binding equal to that caused by the selenium analogue.

[3] = test system: antibodies raised against these cyclic nucleotides (3',5'-cyclic AMP and 3',5'-cyclic GMP); experiment: Binding of selenocysteine conjugates to antibodies raised against the cyclic nucleotides; conditions: qualitative
[4] = test system: Antiserum (raised against cyclic GMP-2'-succinyl-BSA); experiment: Saturation analysis of cyclic GMP: binding of Se-methyl-L-selenocysteine-75Se conjugate of 2'-O-succinyl cyclic GMP to antiserum and displacement by cyclic GMP; conditions: 0.59 picomoles ligand, pH 7.5, 2°-4° C., 3 hours
Method: Standard solutions of cyclic GMP containing 5, 10, 20, 40, 80 and 16,000 picomoles in 100μl of 50mmol tris/4mmol EDTA buffer, pH 7.5 were pipetted into assay tubes maintained at 2°-4° C.; the concentration of 16,000 picomoles/100μl was for determination of `non-specific binding`. 100μl of buffer was also added to a tube for determination of `zero dose` counts. To each tube was added Se-methyl-L-selenocysteine-^75 Se conjugate of 2' -O-succinyl cyclic GMP (0.59 picomoles; specific activity ca 16.1Ci/mmol) in 50μl of buffer. Antiserum (raised against cyclic GMP-2'-succinyl-BSA) in 50μl of buffer was then added to all tubes. The tubes were briefly vortex mixed and incubated at 2°-4° C. for 3 hours. 1ml of aqueous ammonium sulphate solution (60% saturated) at 2°-4° C. was added to all tubes which, after mixing, were kept at 2°-4° C. for 5 minutes and then centrifuged.
After decantation of the supernate and removal of adhering liquid the precipitates were counted in a gamma counter. 0.59 picomoles of the Se-methyl-L-selenocysteine-^75 Se conjugate of 2' -O-succinyl cyclic GMP in 50μl of buffer was also counted to give `total` counts.
as §1

For `C[75Se]c1nc2c(N)ncnc2n1[C@@H]1O[C@@H]2COP(=O)(O)O[C@H]2[C@H]1O` [I, 8-methylselenoadenosine 3', 5'-cyclic monophosphate-^75 Se], the “Percentage of 75Se-labelled cyclic AMP bound” value ([1]; dose of cyclic AMP 0 picomoles) was 38.8%, the “Percentage of 75Se-labelled cyclic AMP bound” value ([1]; dose of cyclic AMP 1 picomole) was 29.7% and the “Percentage of 75Se-labelled cyclic AMP bound” value ([1]; dose of cyclic AMP 2 picomoles) was 26.7%. For the same compound, the “Percentage of 75Se-labelled cyclic AMP bound” value ([1]; dose of cyclic AMP 4 picomoles) was 21.4%, the “Percentage of 75Se-labelled cyclic AMP bound” value ([1]; dose of cyclic AMP 8 picomoles) was 16.6% and the “Percentage of 75Se-labelled cyclic AMP bound” value ([1]; dose of cyclic AMP 16 picomoles) was 10.6%. For the same compound, the “binding to natural binding protein extracted from bovine muscle” value [1] was “shown to bind” and the “displacement with 3',5'-cyclic AMP from natural binding protein” value [1] was “capable of displacement”.
For `C[75Se]c1nc2c(=O)[nH]c(N)nc2n1[C@@H]1O[C@@H]2COP(=O)(O)O[C@H]2[C@H]1O` [II, 8-methylselenoguanosine 3',5'-cyclic monophosphate-^75 Se], the “Percentage of 75Se-labelled cyclic GMP bound” value ([2]; dose of cyclic GMP 0 picomoles) was 45.3%, the “Percentage of 75Se-labelled cyclic GMP bound” value ([2]; dose of cyclic GMP 0.25 picomoles) was 33.7% and the “Percentage of 75Se-labelled cyclic GMP bound” value ([2]; dose of cyclic GMP 0.5 picomoles) was 27.8%. For the same compound, the “Percentage of 75Se-labelled cyclic GMP bound” value ([2]; dose of cyclic GMP 1.0 picomoles) was 22.3%, the “Percentage of 75Se-labelled cyclic GMP bound” value ([2]; dose of cyclic GMP 2.0 picomoles) was 14.0% and the “Percentage of 75Se-labelled cyclic GMP bound” value ([2]; dose of cyclic GMP 4.0 picomoles) was 9.3%. For the same compound, the “Percentage of 75Se-labelled cyclic GMP bound” value ([2]; dose of cyclic GMP 8.0 picomoles) was 6.5% and the “binding to an antibody raised against cyclic GMP-2'-O-succinyl-BSA” value ([2]; qualitative) was “shown to bind”.
In the case of `C[75Se]c1ncnc2c1ncn2[C@@H]1O[C@@H]2COP(=O)(O)O[C@H]2[C@H]1O` [III, 6methylselenopurineriboside-3',5'-cyclic monophosphate-^75 Se], the “binding to natural binding protein extracted from bovine muscle” value [1] is reported as “shown to bind”, the “displacement with 3',5'-cyclic AMP from natural binding protein” value [1] is reported as “capable of displacement” and the “cyclic AMP causing as much displacement of tritiated cyclic AMP” value (binding protein; 9.6pmoles of Se analogue) is reported as 12.2 pmol. The “% 3H-cyclic AMP bound” value (binding protein; Se analogue 9.6 pmoles/50μl) was 5.06%, the “Cyclic AMP equivalent” value (binding protein; Se analogue 9.6 pmoles/50μl) was 12.2 pmoles/50μl and the “% 3H-cyclic AMP bound” value (binding protein; Se analogue 105 pmoles/50μl) was 0.96%. The “Cyclic AMP equivalent” value (binding protein; Se analogue 105 pmoles/50μl) was 69.7 pmoles/50μl, the “% 3H-cyclic AMP bound” value (binding protein; Se analogue 1,156 pmoles/50μl) was 0.42% and the “Cyclic AMP equivalent” value (binding protein; Se analogue 1,156 pmoles/50μl) was 161 pmoles/50μl. For the same compound, the “binding power compared with cyclic AMP” value (binding protein; at the concentration employed (9.6pmoles)) was “very similar binding powers”.
For `C[75Se]C[C@H](NC(=O)CCC(=O)O[C@@H]1[C@@H]2OP(=O)(O)OC[C@H]2O[C@H]1n1cnc2c(N)ncnc21)C(=O)O` [IV], the “binding to antibodies raised against these cyclic nucleotides” value [3] was “bind strongly”.
With `C[75Se]C[C@H](NC(=O)CCC(=O)O[C@@H]1[C@@H]2OP(=O)(O)OC[C@H]2O[C@H]1n1cnc2c(=O)[nH]c(N)nc21)C(=O)O` [V] the “binding to antibodies raised against these cyclic nucleotides” value [3] was “bind strongly”, the “Percentage of 75Se-labelled cyclic GMP bound” value ([4]; dose of cyclic GMP 0 picomoles) was 24.5% and the “Percentage of 75Se-labelled cyclic GMP bound” value ([4]; dose of cyclic GMP 5 picomoles) was 17.3%. For the same compound, the “Percentage of 75Se-labelled cyclic GMP bound” value ([4]; dose of cyclic GMP 10 picomoles) was 16.7%, the “Percentage of 75Se-labelled cyclic GMP bound” value ([4]; dose of cyclic GMP 20 picomoles) was 11.8% and the “Percentage of 75Se-labelled cyclic GMP bound” value ([4]; dose of cyclic GMP 40 picomoles) was 8.3%. The “Percentage of 75Se-labelled cyclic GMP bound” value ([4]; dose of cyclic GMP 80 picomoles) was 6.1%.
